Some test systems named below: CAKI-1 renal; HL-60(TB) leukemia; MOLT-4 leukemia; NCI-H23 lung; NCI-H522 lung; NCI/ADR-RES ovarian; OVCAR-3 ovarian; OVCAR-8 ovarian; PC-3 prostate; RPMI-8226 leukemia; SF-268 CNS; SF-295 CNS; SF-539 CNS; SK-MEL-2 melanoma; SK-MEL-5 melanoma; SR leukemia; TK-10 renal; U251 CNS; UACC-257 melanoma.
Holding throughout (experiment): NCI-60 cell line screen, 48 h

SMILES strings stand for the structures.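 Compound exposure: 48 hours, 5 concentrations, 96-well plates. TGI: total growth inhibition.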

Consider `COc1ccc2nc3cc([N+](=O)[O-])ccc3c(NNc3ccc(Cl)cc3)c2c1`, for which the TGI in the assay on CAKI-1 renal is 2.26 µM; in the assay with HL-60(TB) leukemia it was more than 73.8 µM; in the assay on MOLT-4 leukemia, more than 92.4 µM; in the assay with NCI-H23 lung it was more than 100 µM; with NCI-H522 lung, 83.7 µM; with NCI/ADR-RES ovarian it was more than 100 µM. Also, the TGI in the assay on OVCAR-3 ovarian is more than 20.5 µM; with OVCAR-8 ovarian, 65.1 µM; with PC-3 prostate, more than 77.5 µM; with RPMI-8226 leukemia it was 78.7 µM; in the assay with SF-268 CNS, more than 100 µM; in the assay with SF-295 CNS, more than 100 µM. The TGI in the assay with SF-539 CNS is 97.5 µM; in the assay on SK-MEL-2 melanoma, 59.4 µM; in the assay with SK-MEL-5 melanoma, 36.2 µM; with SR leukemia, 37.7 µM; in the assay on TK-10 renal, 5.16 µM; in the assay with U251 CNS it was 74.6 µM. This compound came in with a TGI in the assay with UACC-257 melanoma of more than 100 µM.
For the compound `CC(=O)n1nc(-c2nc3ccccc3nc2Cl)cc1Cl`, the TGI in the assay with CAKI-1 renal was determined as 21.6 µM; in the assay with HL-60(TB) leukemia, 35 µM; in the assay with MOLT-4 leukemia it was 14.3 µM; in the assay with NCI-H23 lung, 49.6 µM; in the assay with NCI-H522 lung, 31.2 µM; with NCI/ADR-RES ovarian, 55.8 µM. Further, the TGI in the assay with OVCAR-3 ovarian is 68.2 µM; in the assay with OVCAR-8 ovarian, 67.1 µM; in the assay on PC-3 prostate it was more than 100 µM; in the assay on RPMI-8226 leukemia, more than 100 µM; in the assay with SF-268 CNS, more than 100 µM; with SF-295 CNS, more than 93.2 µM. Moreover, the TGI in the assay with SF-539 CNS is 10.1 µM; in the assay on SK-MEL-2 melanoma, more than 100 µM; with SK-MEL-5 melanoma it was 16.1 µM; in the assay on SR leukemia, 13.3 µM; with TK-10 renal, more than 100 µM; in the assay with U251 CNS, more than 77.6 µM. The TGI in the assay with UACC-257 melanoma was more than 100 µM.
As to `O=[N+]([O-])/C(Cl)=C(\Nc1ccccc1)C(Cl)=C(Cl)Cl`, the TGI is more than 100 µM in the assay on CAKI-1 renal; 40.1 µM in the assay with HL-60(TB) leukemia; more than 100 µM with MOLT-4 leukemia; more than 100 µM in the assay on NCI-H23 lung; more than 100 µM in the assay with NCI-H522 lung; 38.5 µM with NCI/ADR-RES ovarian. Moreover, the TGI in the assay on OVCAR-3 ovarian is 40.7 µM; in the assay on OVCAR-8 ovarian, 53.9 µM; in the assay on PC-3 prostate, more than 100 µM; with RPMI-8226 leukemia, 78.9 µM; in the assay on SF-268 CNS, more than 100 µM; in the assay on SF-295 CNS, 94 µM. Moreover, the TGI with SF-539 CNS was 47.4 µM; with SK-MEL-2 melanoma, 91.6 µM; with SK-MEL-5 melanoma, 47 µM; in the assay on SR leukemia it was 69.9 µM; with TK-10 renal it was more than 100 µM; with U251 CNS, more than 100 µM. Besides, the TGI in the assay on UACC-257 melanoma was more than 100 µM.
For `CCCCCC(=O)OCC(=O)[C@H]1[C@H](C)C[C@H]2[C@@H]3C[C@H](F)C4=C/C(=N/OC(=O)c5cccc6c(=O)c7ccccc7[nH]c56)C=C[C@]4(C)[C@H]3[C@@H](O)C[C@@]21C`, the TGI in the assay on CAKI-1 renal was more than 100 µM; with HL-60(TB) leukemia it was more than 100 µM; in the assay with MOLT-4 leukemia it was more than 100 µM; in the assay with NCI-H23 lung, more than 100 µM; in the assay on NCI-H522 lung, 46 µM; in the assay on NCI/ADR-RES ovarian it was 41.1 µM. Further, the TGI is 65.5 µM in the assay with OVCAR-3 ovarian; 65.9 µM with OVCAR-8 ovarian; 53.8 µM in the assay with PC-3 prostate; 14.9 µM in the assay on RPMI-8226 leukemia; more than 100 µM in the assay with SF-268 CNS; more than 100 µM with SF-295 CNS. The TGI in the assay on SF-539 CNS was more than 100 µM; with SK-MEL-2 melanoma it was 76.8 µM; in the assay with SK-MEL-5 melanoma, 27.8 µM; in the assay on SR leukemia it was 93.3 µM; in the assay with TK-10 renal it was more than 100 µM; in the assay with U251 CNS it was more than 100 µM. Also, the TGI in the assay on UACC-257 melanoma came out at 62 µM.
In the case of `COc1ccc(-c2c3c(n(C4OC(CO)C(O)C(O)C4O)c(=S)c2C#N)CC(C)(C)CC3=O)cc1` (stereo not drawn), the TGI with CAKI-1 renal, in the assay with HL-60(TB) leukemia, in the assay on MOLT-4 leukemia, with NCI-H23 lung, in the assay with NCI-H522 lung and in the assay with NCI/ADR-RES ovarian was more than 100 µM in each case. In addition, the TGI in the assay with OVCAR-3 ovarian, in the assay with OVCAR-8 ovarian, with PC-3 prostate, with RPMI-8226 leukemia, with SF-268 CNS and in the assay with SF-295 CNS was more than 100 µM in each case. In addition, the TGI with SF-539 CNS, in the assay with SK-MEL-2 melanoma, in the assay on SK-MEL-5 melanoma, in the assay on SR leukemia, in the assay on TK-10 renal and with U251 CNS was more than 100 µM throughout. For the same compound, the TGI in the assay on UACC-257 melanoma is more than 100 µM.
With `CC1(C)OC(=O)C(C)(C)OC1=O`, the TGI with CAKI-1 renal, with HL-60(TB) leukemia, in the assay with MOLT-4 leukemia, in the assay on NCI-H23 lung, with NCI-H522 lung and with NCI/ADR-RES ovarian was more than 100 µM each time. In addition, the TGI in the assay on OVCAR-3 ovarian, with OVCAR-8 ovarian, in the assay with PC-3 prostate, in the assay with RPMI-8226 leukemia, in the assay with SF-268 CNS and in the assay with SF-295 CNS was more than 100 µM in each case. Further, the TGI in the assay with SF-539 CNS, in the assay on SK-MEL-2 melanoma, with SK-MEL-5 melanoma, with SR leukemia, with TK-10 renal and in the assay on U251 CNS was more than 100 µM in each case. Further, the TGI in the assay with UACC-257 melanoma is more than 100 µM.
Turning to `O=c1oc2ccccc2cc1-c1nnc(-c2ccccc2)s1`, the TGI in the assay on CAKI-1 renal is more than 100 µM; in the assay on HL-60(TB) leukemia, 3.5 µM; with MOLT-4 leukemia, more than 100 µM; in the assay with NCI-H23 lung, more than 100 µM; with NCI-H522 lung, more than 100 µM; in the assay on NCI/ADR-RES ovarian it was more than 67.2 µM. For the same compound, the TGI in the assay with OVCAR-3 ovarian was more than 58.5 µM; with OVCAR-8 ovarian, more than 69.4 µM; with PC-3 prostate, more than 100 µM; with RPMI-8226 leukemia it was more than 100 µM; in the assay on SF-268 CNS, more than 100 µM; in the assay on SF-295 CNS, more than 71 µM. The TGI with SF-539 CNS was more than 41.8 µM; in the assay on SK-MEL-2 melanoma, more than 100 µM; with SK-MEL-5 melanoma, more than 100 µM; in the assay with SR leukemia, more than 36.8 µM; with TK-10 renal, more than 53.8 µM; with U251 CNS, 26.4 µM. The TGI in the assay on UACC-257 melanoma is more than 100 µM.

The values are drawn from PubChem BioAssay (NCI).
